Source: article PMC6792352, “Limited Chemical Structural Diversity Found to Modulate Thyroid Hormone Receptor in the Tox21 Chemical Library” (Environmental Health Perspectives, 2019)
Where a name gives a salt, the structure may show the parent alone.

Experiment: in vitro
Conditions: rat, gh3-tre-luc cells

| SMILES | CC50 at 24 h (AC50 (uM) modified / 1000) [µM] | other results |
| --- | --- | --- |
| C[N+](C)(C)CCOP(=O)(O)OP(=O)([O-])OC[C@H]1O[C@@H](n2ccc(N)nc2=O)[C@H](O)[C@@H]1O [Citicoline sodium] | > 50 |  |
| CN(C)C1CSSSC1 [Thiocyclam oxalate] | > 90 |  |
| C[C@@H](Cc1ccccc1)NCc1ccccc1Cl [Clobenzorex hydrochloride] |  | CC50 at 24 h (AC50 (uM) modified / 1000, Tox21_110001=Tox21_111806, viability, 1 nM T3 present, 24 h): > 50 µM |
| NC(=O)c1ccccc1C(N)=O [Phthalamide] | > 90 |  |
| O=[N+]([O-])c1ccccc1CCl [2-Nitrobenzyl chloride] |  | CC50 at 24 h (AC50 (uM) modified / 1000, Tox21_110001=Tox21_200821, viability, 1 nM T3 present, 24 h): > 90 µM |
| CCCCn1cc[n+](C)c1C [1-Butyl-2,3-dimethylimidazolium chloride] | > 90 |  |
| CC(C)(C)c1ccc(S)cc1 [4-tert-Butylbenzenethiol] | > 90 |  |
| CCCN(CCC)c1c([N+](=O)[O-])cc(C(F)(F)F)c(N)c1[N+](=O)[O-] [Prodiamine] | 14.5 |  |
| C[C@@H]1O[C@@H](OC[C@H]2O[C@@H](Oc3c(-c4ccc(O)c(O)c4)oc4cc(O)cc(O)c4c3=O)[C@H](O)[C@@H](O)[C@@H]2O)[C@H](O)[C@H](O)[C@H]1O [Rutin] | 57.3 |  |
| COc1ccc(C2CNC(=O)C2)cc1OC1CCCC1 (stereo not drawn) [Rolipram] | > 20 |  |
| C1=COCCC1 [3,4-Dihydro-2H-pyran] | > 90 |  |
| CC(NCCC(c1ccccc1)c1ccccc1)c1ccccc1 (stereo not drawn) [Fendiline hydrochloride] | 6.49 |  |
| Cc1nc2c([nH]1)c(=O)n(C)c(=O)n2Cc1ccco1 [Furafylline] | > 50 |  |
| CCCCOC(=O)C(C)CC (stereo not drawn) [Butyl 2-methylbutyrate] | > 90 |  |
| Sc1nc2ccccc2s1 [2-Mercaptobenzothiazole] | > 50 |  |
| O=P(O)(OCc1ccccc1)OCc1ccccc1 [Dibenzyl phosphate] | > 90 |  |
| CC(=O)O[C@]1(C(C)=O)CC[C@H]2[C@@H]3CCC4=CC(=O)CC[C@]4(C)[C@@]3(F)[C@@H](O)C[C@@]21C [Flurogestone acetate] | > 50 |  |
| NC(=O)c1cn(Cc2c(F)cccc2F)nn1 [Rufinamide] | > 50 |  |
| CCN(C(=O)N(CC)c1ccccc1)c1ccccc1 [N,N'-Diethylcarbanilide] | > 90 |  |
| O=C(CCCCCCCCC#CI)Oc1ccccc1 [Phenyl 11-iodo-10-undecynoate] | > 50 |  |
| COC(C)(C)CCCC(C)C/C=C/C(C)=C/C(=O)OC(C)C (stereo not drawn) [Methoprene] | > 90 |  |

| SMILES | CC50 at 24 h (AC50 (uM) modified / 1000) [µM] | other results |
| --- | --- | --- |
| CC[C@@H](C)[C@H](N)C(=O)O [L-Alloisoleucine] | > 50 |  |
| CN1CCOCC1 [4-Methylmorpholine] | > 90 |  |
| C1COCO1 [1,3-Dioxolane] | > 90 |  |
| BrCCCCBr [1,4-Dibromobutane] |  | CC50 at 24 h (AC50 (uM) modified / 1000, Tox21_110001=Tox21_301070, viability, 1 nM T3 present, 24 h): > 90 µM |
| OC[C@H]1O[C@@](CO)(O[C@H]2O[C@H](CO)[C@@H](O)[C@H](O)[C@H]2O)[C@@H](O)[C@@H]1O [Sucrose] | > 90 |  |
| COc1cc(C(=S)N2CCOCC2)cc(OC)c1OC [Tritiozine] | > 50 |  |
| CC(=O)CCc1ccc(OC(C)=O)cc1 [4-(4-(Acetyloxy)phenyl)-2-butanone] | > 90 |  |
| CN[C@@H]1C[C@@H](c2ccc(Cl)c(Cl)c2)c2ccccc21 [Indatraline hydrochloride] | 10 |  |
| CCCC(C)c1ccccc1O (stereo not drawn) [2-(1-Methylbutyl)phenol] | 54.4 |  |
| CCOC(=O)C1=C(C)NC(C)=C(C(=O)OC)C1c1cccc([N+](=O)[O-])c1 (stereo not drawn) [Nitrendipine] | > 50 |  |
| CC(C)(C)c1csc(-c2cc3cc(OCc4ccccc4CC(=O)O)ccc3o2)n1 [FR150011] | 79.7 |  |
| CCCCCCCCCCCCCCC [Pentadecane] | > 90 |  |
| O=C(O)COc1ccc2ccccc2c1 [2-Naphthoxyacetic acid] | > 90 |  |
| CC1COC(=O)O1 (stereo not drawn) [Propylene carbonate] | > 90 |  |
| C#C[C@]1(O)CC[C@H]2[C@@H]3CCc4cc(O)ccc4[C@H]3CC[C@@]21C [17alpha-Ethinylestradiol] | > 90 |  |
| Fc1ccccc1 [Fluorobenzene] | > 90 |  |
| CC[C@H](NC(=O)c1cc(F)ccc1NS(=O)(=O)c1cccc2cccnc12)c1ccccc1 [AVE3295] | > 90 |  |
| CCCCCCCCCCCCCCCl [1-Chlorotetradecane] |  | CC50 at 24 h (AC50 (uM) modified / 1000, Tox21_110001=Tox21_200456, viability, 1 nM T3 present, 24 h): > 90 µM |
| CCC(=O)OCC(=O)[C@@]1(OC(=O)CC)[C@H](C)C[C@H]2[C@@H]3CCC4=CC(=O)C=C[C@]4(C)[C@@]3(F)[C@@H](O)C[C@@]21C [Dexamethasone dipropionate] | > 50 |  |
| CCCCCCCCC(CO)CCCCCC (stereo not drawn) [2-Hexyl-1-decanol] | > 90 |  |
| O=C1CCCCCCCCCCC1 [Cyclododecanone] | > 90 |  |
